Among the data in patent US20230011571A1, “SMALL MOLECULE FURIN INHIBITORS FOR TREATING INFECTIOUS DISEASES” (BP Asset V, Inc., priority 2019, published 2023) are inhibition values, retold here.

Holding throughout (format): cell-based
Assay [1] deals with Chikungunya virus (CHIKV). Put plainly: microbe, parasite or virus in culture. The following applies: Chikungunya virus, Vero, 48 h, read-out: Percent viral inhibition CHKV.
Another assay deals with Marburg virus (MARV). The assay is described as follows: organism not typed. The following applies: Vero, 72 h, read-out: Percent viral inhibition MARV.
In the next assay the test system is dengue virus (DENV). Put plainly: microbe, parasite or virus in culture. The following applies: Dengue virus, Vero, 120 h, read-out: Percent viral inhibition DENY.

Consider `C[C@@H](O)CN1CCN(c2ncc(Oc3cc(CN4CCC(OCC(=O)O)CC4)cc(-c4cc(Cl)cc(Cl)c4)n3)cn2)CC1` [Example 317, (R)-2-((1-((2-(3,5-dichlorophenyl)-6-((2-(4-(2-hydroxypropyl)piperazin-1-yl)pyrimidin-5-yl)oxy)pyridin-4-yl)methyl)piperidin-4-yl)oxy)acetic acid], for which the inhibition at 1 µM was 14.8% in assay [1], 53.6% with Marburg virus (MARV) and 20.2% with dengue virus (DENV).

As to `CC(=O)NCC1CCN(Cc2cc(Oc3cnc(N4CCN(C(C)CCC(=O)O)CC4)nc3)nc(-c3cc(Cl)cc(Cl)c3)c2)CC1` (stereo not drawn) [Example 215, 4-(4-(5-((4-((4-(acetamidomethyl)piperidin-1-yl)methyl)-6-(3,5-dichlorophenyl)pyridin-2-yl)oxy)pyrimidin-2-yl)piperazin-1-yl)pentanoic acid], the values for the inhibition at 1 µM (in assay [1]; in the assay on Marburg virus (MARV); in the assay with dengue virus (DENV)) were 32.5%, 56.7% and 24.4%, respectively.

As for `CCN1CCN(c2ccc(Oc3cc(CN4CCC(CC(=O)O)CC4)cc(-c4cc(Cl)cc(Cl)c4)n3)nn2)CC1` [Example 358, 2-(1-((2-(3,5-dichlorophenyl)-6-((6-(4-ethylpiperazin-1-yl)pyridazin-3-yl)oxy)pyridin-4-yl)methyl)piperidin-4-yl)acetic acid], the inhibition at 1 µM in assay [1] is 20.4%; in the assay on Marburg virus (MARV) it was 49%; in the assay with dengue virus (DENV), 67.1%.

With `CC(=O)NCC1CCN(Cc2cc(Oc3cnc(N4CCN(C[C@@H](C)O)CC4)nc3)nc(-c3cc(Cl)cc(Cl)c3)c2)CC1` [Example 302, (R)-N-((1-((2-(3,5-dichlorophenyl)-6-((2-(4-(2-hydroxypropyl)piperazin-1-yl)pyrimidin-5-yl)oxy)pyridin-4-yl)methyl)piperidin-4-yl)methyl)acetamide], the inhibition at 1 µM in assay [1] turned out to be 39%; with Marburg virus (MARV) it was 56.9%; with dengue virus (DENV) it was 26.6%.

Turning to `CNC(=O)NCC1CCN(Cc2cc(Oc3cnc(N4CCN(C(C)CCS(C)(=O)=O)CC4)nc3)nc(-c3cc(F)cc(Cl)c3)c2)CC1` (stereo not drawn) [Example 373, 1-((1-((2-(3-chloro-5-fluorophenyl)-6-((2-(4-(4-(methylsulfonyl)butan-2-yl)piperazin-1-yl)pyrimidin-5-yl)oxy)pyridin-4-yl)methyl)piperidin-4-yl)methyl)-3-methylurea], the inhibition at 1 µM was 28.8% in assay [1], 67.8% in the assay on Marburg virus (MARV) and 53.4% in the assay with dengue virus (DENV).

In the case of `CNC(=O)OCC1CCN(Cc2cc(Oc3cnc(N4CCN(C5CC(C(=O)O)C5)CC4)nc3)nc(-c3cc(Cl)cc(Cl)c3)c2)CC1` (stereo not drawn) [Example 211, 3-(4-(5-((6-(3,5-dichlorophenyl)-4-((4-(((methylcarbamoyl)oxy)methyl)piperidin-1-yl)methyl)pyridin-2-yl)oxy)pyrimidin-2-yl)piperazin-1-yl)cyclobutanecarboxylic acid], the inhibition at 1 µM in assay [1] came out at 44.7%; in the assay with Marburg virus (MARV), 62.5%; with dengue virus (DENV), 13.3%.

Consider `FC1CCN(Cc2cc(Oc3cnc(N4CCN5CCC4C5)nc3)nc(-c3cc(Cl)cc(Cl)c3)c2)CC1` (stereo not drawn) [Example 338, 4-(5-((6-(3,5-dichlorophenyl)-4-((4-fluoropiperidin-1-yl)methyl)pyridin-2-yl)oxy)pyrimidin-2-yl)-1,4-diazabicyclo[3.2.1]octane], for which the results for the inhibition at 1 µM (in assay [1]; with Marburg virus (MARV); in the assay on dengue virus (DENV)) were 19.3%, 12.2% and 55.4%, respectively.

For the molecule `CC(=O)NCC1CCN(Cc2cc(Oc3cnc(N4CCN(C(C)CC(N)=O)CC4)nc3)nc(-c3cc(Cl)cc(Cl)c3)c2)CC1` (stereo not drawn) [Example 95], the figures for the inhibition at 1 µM (in assay [1]; with Marburg virus (MARV); in the assay on dengue virus (DENV)) were 46.6%, 59% and 58.1%, respectively.

As usually defined, the inhibition is the percentage by which the read-out fell short of the control.
